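Five compound concentrations were applied to cells in 96-well plates for 48 hours; endpoints were derived by simple linear interpolation of the resulting dose-response curve. GI50 is the concentration that inhibits growth by half.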 Active and inactive are the calls of the source. Rule as the data show it: active = GI50 up to about 1.1 µM and inactive = higher.
Experiments:
Assay in all cases: NCI tumour cell line growth inhibition, 48 h
K562 = test system: K562
TK-10 = test system: TK-10
U-251 = test system: U-251
HCT-116 = test system: HCT-116
RPMI-8226 = test system: RPMI-8226
HOP-92 = test system: HOP-92
MCF7 = test system: MCF7
MDA-N = test system: MDA-N
NCI-H522 = test system: NCI-H522
LOX IMVI = test system: LOX IMVI
SF-539 = test system: SF-539
UACC-62 = test system: UACC-62
A498 = test system: A498
SF-268 = test system: SF-268
OVCAR-8 = test system: OVCAR-8
SW-620 = test system: SW-620
HCC 2998 = test system: HCC 2998
CAKI-1 = test system: CAKI-1
IGROV-1 = test system: IGROV-1
MOLT-4 = test system: MOLT-4

| SMILES | GI50 (K562) | GI50 (TK-10) | GI50 (U-251) | GI50 (HCT-116) | GI50 (RPMI-8226) | GI50 (HOP-92) | GI50 (MCF7) | GI50 (MDA-N) | GI50 (NCI-H522) | GI50 (LOX IMVI) | GI50 (SF-539) | GI50 (UACC-62) | GI50 (A498) | GI50 (SF-268) | GI50 (OVCAR-8) | GI50 (SW-620) | GI50 (HCC 2998) | GI50 (CAKI-1) | GI50 (IGROV-1) | GI50 (MOLT-4) |
| --- | --- | --- | --- | --- | --- | --- | --- | --- | --- | --- | --- | --- | --- | --- | --- | --- | --- | --- | --- | --- |
| O=C(Nc1ccccc1)n1[nH]c(=O)n(-c2ccccc2)c1=O | > 100 µM (inactive) | > 100 µM (inactive) | > 100 µM (inactive) | > 100 µM (inactive) | > 100 µM (inactive) | > 100 µM (inactive) | > 100 µM (inactive) | > 100 µM (inactive) | > 100 µM (inactive) | > 100 µM (inactive) | > 100 µM (inactive) | > 100 µM (inactive) | > 100 µM (inactive) | > 100 µM (inactive) | > 100 µM (inactive) | > 100 µM (inactive) | > 100 µM (inactive) | > 100 µM (inactive) | – | – |
| NS(=O)(=O)c1cc(Cl)c(NC(=S)NC(=O)Nc2ccc(Cl)c(Cl)c2)c(Cl)c1 | 35.2 µM (inactive) | 47.4 µM (inactive) | 37.2 µM (inactive) | 35.7 µM (inactive) | – | 55.7 µM (inactive) | 20.4 µM (inactive) | 33.6 µM (inactive) | 26.1 µM (inactive) | 40.3 µM (inactive) | 28.6 µM (inactive) | 23.1 µM (inactive) | 26.7 µM (inactive) | 56.8 µM (inactive) | 47.6 µM (inactive) | 58.1 µM (inactive) | 59.2 µM (inactive) | 76.4 µM (inactive) | 81.1 µM (inactive) | 30.5 µM (inactive) |
| Cc1nc2c(=O)n(C)c(=O)n(C)c2o1 | > 100 µM (inactive) | > 100 µM (inactive) | > 100 µM (inactive) | > 100 µM (inactive) | > 100 µM (inactive) | > 100 µM (inactive) | > 10 µM (inactive) | > 100 µM (inactive) | > 100 µM (inactive) | > 100 µM (inactive) | > 100 µM (inactive) | > 100 µM (inactive) | > 100 µM (inactive) | > 100 µM (inactive) | > 100 µM (inactive) | > 100 µM (inactive) | > 100 µM (inactive) | > 100 µM (inactive) | > 100 µM (inactive) | > 100 µM (inactive) |
| O=C1c2ccccc2C(=O)N1CCCC(=O)n1cc(F)c(=O)[nH]c1=O | 24.9 µM (inactive) | > 41.2 µM (inactive) | > 100 µM (inactive) | 6.24 µM (inactive) | 5.06 µM (inactive) | > 21.4 µM (inactive) | 6.21 µM (inactive) | 16.1 µM (inactive) | 37.4 µM (inactive) | 6.18 µM (inactive) | 7 µM (inactive) | 23.6 µM (inactive) | 4.69 µM (inactive) | 69.2 µM (inactive) | 10.7 µM (inactive) | > 72.6 µM (inactive) | 0.82 µM (active) | 6.05 µM (inactive) | 3.4 µM (inactive) | 35.4 µM (inactive) |
| CC(=O)C(I(OS(=O)(=O)c1ccc(C)cc1)c1ccccc1)=P(c1ccccc1)(c1ccccc1)c1ccccc1 | 30.6 µM (inactive) | 84.9 µM (inactive) | 29.2 µM (inactive) | 21.2 µM (inactive) | 21.4 µM (inactive) | 10.5 µM (inactive) | 35.8 µM (inactive) | 15 µM (inactive) | 11.8 µM (inactive) | – | 18.2 µM (inactive) | 1.06 µM (active) | > 100 µM (inactive) | 23.7 µM (inactive) | 32.6 µM (inactive) | – | 18 µM (inactive) | > 100 µM (inactive) | 35.6 µM (inactive) | 26.4 µM (inactive) |
| COc1ccc(/N=N/c2ccc3oc(=O)c(C(=O)Nc4ccccc4)cc3c2)cc1 | – | > 10 µM (inactive) | > 10 µM (inactive) | > 10 µM (inactive) | > 10 µM (inactive) | > 10 µM (inactive) | > 9.29 µM (inactive) | > 10 µM (inactive) | > 10 µM (inactive) | > 10 µM (inactive) | > 9.31 µM (inactive) | > 10 µM (inactive) | > 10 µM (inactive) | > 8.32 µM (inactive) | > 8.51 µM (inactive) | > 10 µM (inactive) | > 10 µM (inactive) | > 10 µM (inactive) | > 10 µM (inactive) | 6.4 µM (inactive) |
| Cc1cc2c(cc1C)[n+]([O-])c(N1CCN(c3ccc([N+](=O)[O-])cc3)CC1)c(C#N)[n+]2[O-] | – | 15 µM (inactive) | 17 µM (inactive) | 61.7 µM (inactive) | > 100 µM (inactive) | 23.2 µM (inactive) | 28.6 µM (inactive) | > 100 µM (inactive) | 26.2 µM (inactive) | 25.2 µM (inactive) | – | 20.3 µM (inactive) | 35 µM (inactive) | 41.7 µM (inactive) | 16.6 µM (inactive) | > 100 µM (inactive) | > 100 µM (inactive) | 83 µM (inactive) | 25.3 µM (inactive) | – |
